This is an account of results in patent US7288558B2, “Pharmaceutical composition for treatment for urinary diseases comprising LPA receptor regulator” (Ono Pharmaceuticals Co., Ltd., priority 2001, dated 2007).

One experiment relates to colon and ileum. The conditions noted are these: rats, literature; cited from earlier work.
For experiment [1], the system named is urethra. The experiment is described as follows: Measurement of urethral pressure by drugs in pithed male rats, i.v. Also on record: key to urethral pressure: ↑: increase; (—): no effect. The conditions noted are these: for urethral pressure / urethral pressure (increase): male pithed rats; for urethral pressure: class symbol; for intraurethral pressure: 1 mg/kg i.v. The class given is in vivo, rat. As to the method:
Male CD(SD)IGS rats (Charles River Japan Inc., 8-9 week-old in use) were anesthetized by intraperitoneal administration of sodium pentbarbital (50 mg/kg). After incision of cervical median, broncho cannula and arterial catheter were inserted. The measurement of blood pressure was started via arterial catheter and subsequently a stainless-steel rod was inserted into the spinal column through the orbit and foramen magnum for the destruction of the spinal cord. The broncho cannula was connected to the artificial breathing device for small animals (SN-480-7, Shinano, Tokyo, Japan) immediately and the animals were ventilated artificially with room air in a tidal volume of 6 mL/kg body weight at a rate of 70 breaths/min. After confirming the gentle decrease of blood pressure and stabilization of the blood pressure at the low level indicating a success of destruction of the spinal cord, intravenous catheter was inserted into femoral vein for drug administration. Urinary bladder was exposed by incision of hypogastrium median and urethra was tied off in the vicinity of pubic bone. Urethra catheter was inserted into urethra through dome of urinary bladder and fixed by ligation at the bladder neck. Urethra catheter was connected to the pressure transducer and urethral pressure was measured. Subsequently, urethral pressure was adjusted about 20 mmHg and left for about 1 hour. After it was confirmed stability of urethral pressure, and subsequently 10 μg/kg/0.5 ml phenylephrine was administrated and it was confirmed that urethral pressure increased. Various drugs included 18:3-LPA were estimated 0.5 ml/kg in the same way.

For experiment [2], the system named is isolated urethral preparations. Put plainly: Measurement of urethra contraction, isolated female rat urethral preparations (Magnus tube). The class given is cell-based. The source says: After sacrificing female CD(SD)IGS rats (Charles River Japan Inc., 8-9 week-old in use) by blowing heads and exsanguinating from jugular vein, urethra under pubis was isolated carefully and soaked in Krebs-Henseleit solution (112 mmol/L NaCl, 5.9 mmol/L KCl, 2.0 mmol/L CaCl2, 1.2 mmol/L MgCl2, 1.2 mmol/L NaH2PO4, 25.0 mmol/L NaHCO3, 11.5 mmol/L glucose) immediately. Urethra part was cut from isolated sample, and was dissected in flat and subsequently was cut parallel to circular muscle. Thus, 2-3 strips of sample that are 3-4 mm long by 2-3 mm wide were made.
(§1) The made samples were suspended in the Magnus tube (volume: 10 mL) filled by Krebs-Henseleit solution (vented by 37±1° C., mixed gas [95% O2+5% CO2]). The samples were added about 0.5 g tension and stabilized for 60 min, and subsequently the contractile activity was recorded on recorder (linearcoder WR3320: GRAPHTEC CORP., thermal pen-writing recorder RJG-4128: Nihon Kohden Ltd) via a pressure amplifier (AP-641G, AP-601G, Nihon Kohden Ltd) from isometric transducer (Force displacement transducer) (FD pick-up TB-611T: Nihon Kohden Ltd).
The contractile reaction of control was given by stimulation of high concentration KCl solution (solution replaced all NaCl with KCl). By the addition of LPA and phenylephrine (comparison compound: α agonist) cumulatively, dose-dependency of urethra contraction was measured. […]

Experiment [3] relates to isolated prostatic preparations. The experiment is described as follows: Contractile test of isolated prostate, male rats (Magnus tube). In kind it is cell-based. The conditions noted are these: isolated male rat prostate.
Text: After sacrificing male CD(SD)IGS rats (Charles River Japan Inc., 8-9 week-old in use) by blowing heads and exsanguinating from jugular vein, prostate was isolated and soaked in iced Krebs-Henseleit solution (112 mmol/L NaCl, 5.9 mmol/L KCl, 2.0 mmol/L CaCl2, 1.2 mmol/L MgCl2, 1.2 mmol/L NaH2PO4, 25.0 mmol/L NaHCO3, 11.5 mmol/L glucose) immediately. Prostate was separated right-and-left part from isolated sample, fatty tissue was removed and longitudinal strips (2 to 3 strips) were isolated from a prostate lobe.
as §1, with “were” for “were added about 0.5 g tension and”, “min and added about 0.5-1 g tension,” for “min,”, “AP-601G:” for “AP-601G,”, “Ltd). 0.01-10 μM phenylephrine was added in Magnus tube. The contraction by 10 μM phenylephrine is the contractile reaction of control. […] After the samples were suspended, it was washed over and over, opportunity. […]” for “Ltd).”

A further experiment deals with micturition. The experiment is described as follows: Cystometry in anesthetized female rats with intravenous infusion of LPA. In kind it is in vivo, rat. The conditions noted are these: infusion rate 15 mg/kg/hr/3 mL i.v. The source says: Female CD(Sprague-Dawley)IGS rats (Charles River Japan Inc., 12 to 13 weeks old in use) were anesthetized with an s.c. administration of urethane (1.2 g/kg) and placed in a supine position and the bladder and proximal urethra were exposed through a midline abdominal incision. The ureters were tied with silk suture distally and cut. Bladder was exposed and a polyethylene catheter (JMS cutdown tube, C3) was inserted through the bladder dome and secured with a ligature. The other side of the catheter was connected to a pressure transducer through two T tubes to measure intravesical pressure. Another side of T tubes was connected to an infusion pump for performing cystometrograms (the other side of T tube was connected to a syringe). The carotid artery was cannulated to measure blood pressure and the jugular vein was cannulated to administration of the test compounds. Rats in which the above mentioned operation was performed were placed to 37° C. thermostat plate and citric acid solution (pH4.0) or saline were infused into bladder at the rate of 2.85 mL/hr. After cystometrograms show rhythmic reflex saline was infused via jugular vein at the infusion rate of 3 mL/kg/hr. After an appropriate time 18:3-LPA prepared with 5 mg/mL was infused at the infusion rate of 3 mL/kg/hr. After the 18:3-LPA infusion was stopped saline was infused again. […]

For a further experiment, the target named is EDG-2 (Homo sapiens, UniProt Q92633). The conditions noted are these: EDG-2 over-expressed cell, specification of WO01/60819; cited from earlier work.
Sequence of EDG-2 (Q92633 whole entry): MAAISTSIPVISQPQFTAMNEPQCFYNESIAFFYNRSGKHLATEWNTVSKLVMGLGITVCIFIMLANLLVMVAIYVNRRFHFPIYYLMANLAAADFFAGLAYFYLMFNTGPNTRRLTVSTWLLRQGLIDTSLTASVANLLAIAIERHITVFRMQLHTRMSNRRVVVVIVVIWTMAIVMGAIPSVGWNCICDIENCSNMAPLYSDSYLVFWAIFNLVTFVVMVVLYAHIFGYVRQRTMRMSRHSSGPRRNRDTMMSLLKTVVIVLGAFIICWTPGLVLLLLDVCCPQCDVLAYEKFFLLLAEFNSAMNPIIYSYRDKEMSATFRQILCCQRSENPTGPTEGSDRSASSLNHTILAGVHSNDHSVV
Experiment [4] concerns LPA dependent contraction in rat isolated urethra. The experiment is described as follows: Inhibitory activity for LPA dependent contraction in rat isolated urethra. In kind it is cell-based. The conditions noted are these: isolated male rat urethra, 10 μM LPA. The source says:
Male CD(SD)IGS rats (Charles River Japan Inc., 8-9 week-old in use) anesthetized by diethyl ether were sacrificed by taking blood from the descending aorta, and subsequently urethra under pubis was isolated with urinary bladder and vesicular gland carefully and soaked in Krebs-Henseleit solution (112 mmol/L NaCl, 5.9 mmol/L KCl, 2.0 mmol/L CaCl2, 1.2 mmol/L MgCl2, 1.2 mmol/L NaH2PO4, 25.0 mmol/L NaHCO3, 11.5 mmol/L glucose) immediately. Urethra was cut from extracted sample and was dissected on the side of abdominal in flat with scissors for ophthalmic surgery. Thus, the strip of sample that are 3-4 mm long by 2-3 mm wide was made. […] The samples were added about 0.5 g tension and stabilized for 60 min, and subsequently the contractile activity was recorded on recorder (linearcoder WR3320: GRAPHTEC CORP., thermal pen-writing recorder RJG-4128: Nihon Kohden Ltd) via a pressure amplifier (AP-641G, AP-601G, Nihon Kohden Ltd) from Force displacement transducer (FD pick-up TB-611T: Nihon Kohden Ltd). […]
In other words, the isolated urethra was stimulated repeatedly by 10 μM LPA until a constant response was attained. […] Then the urethral contraction was monitored (post value). The inhibitory activity of compound A was calculated as the inhibition (%)={1-(post value)/(pre value)}×100. […]

The test system of experiment [5] is urethra. The experiment is described as follows: Rat urethral pressure in vivo after intravenous compound A. The conditions noted are these: male rats, 3 mg/kg i.v. An excerpt:
Male CD(SD)IGS rats (Charles River Japan Inc., 8-9 week-old in use) were anesthetized by subcutaneous administration of 1.2 g/kg urethane. After incision of cervical median, jugular vein catheter for administration of compound and arterial catheter for measurement of blood pressure were inserted. Subsequently, an incision in the hypogastrium median was made and urethra was tied off in the vicinity of pubic bone. Urethral catheter was inserted into urethra by cutting open dome of urinary bladder and fixed by ligation in of the bladder neck. Another end of urethral catheter was connected to the pressure transducer and urethral pressure was measured. Urethral pressure was adjusted about 20 mmHg and left at rest until it was stabilized (for about 20 minutes). Subsequently, compound A was administrated intravenously and blood pressure and urethral pressure were measured for 20 minutes, and then in order to monitor the base-line value of the intraurethral pressure 1 mL of pentobarbital was intraveniously injected. After the intraurethral pressure was decreased to the prolonged plateau, it was estimated as a base-line value. Compound A was administrated intraveniously (3 mg/kg, 1 mL/kg). Vehicle was confirmed as 10% DMSO-90% rat plasma solution. […]

As to `CCCCCCCCCCCCCCCC(=O)OCC(O)COP(=O)(O)O` (centres unmarked) [(16:0)-LPA, 1-palmitoyl lysophosphatidic acid], in the experiment with colon and ileum, the “activity for the contraction of colon and ileum” value (“activity for the contraction” for short) is on record as “also have the activity”.

In the case of `CC/C=C\C/C=C\C/C=C\CCCCCCCC(=O)OC[C@@H](O)COP(=O)([O-])OCC[N+](C)(C)C` [LPC (18:3), 1-linolenoyl (18:3)-LPC (lysophosphatidyl choline)], the urethral pressure entry in the experiment with urethra [1] (dose 1 mg/kg i.v.) is recorded as “—”. Also, the intraurethral pressure entry with urethra [1] (pithed rat, in words) is given as “hardly increase”.

As for `CCCCC/C=C\C/C=C\CCCCCCCC(=O)OC[C@@H](O)COP(=O)(O)O` [(18:2)-LPA, 1-linoleoyl lysophosphatidic acid], the “activity for the contraction” value with colon and ileum is “also have the activity”.

Take `CC/C=C\C/C=C\C/C=C\CCCCCCCC(=O)OC[C@@H](O)COP(=O)(O)O` [18:3-LPA, 1-Linolenoyl lysophosphatidic acid]: the “urethral pressure (increase)” value with urethra [1] (dose 10 μg/kg i.v.) was found to be 3.0 mmHg; in the experiment on urethra [1] (dose 100 μg/kg i.v.), 9.0 mmHg; in the experiment with urethra [1] (dose 1 mg/kg i.v.) it was 15.5 mmHg. Moreover, the “intraurethral pressure, dose dependency” value in the experiment on urethra [1] (pithed rat, intravenous injection, in words) is “increased the intraurethral pressure in a dose-dependent manner”. For the same compound, the “desensitization of urethral contraction” value in experiment [2] is recorded as “desensitization was not caused”. Moreover, in experiment [2] (cumulative addition, FIG. 1), the “intensity of contraction of urethra compared with phenylephrine” value is “more potent”. The “desensitization of prostate contraction” value in experiment [3] is on record as “desensitization was caused”. The “contraction of isolated prostate” value in experiment [3] (organ bath in vitro, FIG. 2) was “contracts isolated urethra and prostate”. For the same compound, in the experiment with colon and ileum, the “activity for the contraction” value is “most potent activity”. Besides, the “micturition pressure versus infusion of saline” value in the experiment on micturition was “increased”. Moreover, the “intercontraction interval versus saline infusion” value in the experiment with micturition (FIG. 6) is “shorter”.

Regarding `CNC[C@H](O)c1cccc(O)c1` [L-phenylephrine], the “urethral pressure (increase)” value in the experiment with urethra [1] (dose 10 μg/kg i.v.) worked out at 7.5 mmHg.

Take `CC/C=C\C/C=C\C/C=C\CCCCCCCC(=O)OCC(O)CO` (centres unmarked) [1-monolinolenoyl (18:3)-glycerol]: the urethral pressure entry in the experiment on urethra [1] (dose 1 mg/kg i.v.) was “—”. Besides, the intraurethral pressure entry in the experiment with urethra [1] (pithed rat, in words) is “hardly increase”.

Consider `COC(=O)CCSCc1ccc(-c2onc(C)c2NC(=O)OC(C)c2ccccc2Cl)cc1` (centres unmarked) [compound A, methyl 3-({4-[4-({[1-(2-chlorophenyl)ethoxy]carbonyl}amino)-3-methyl-5-isoxazolyl]benzyl}sulfanyl)propanoate], for which, on EDG-2, the “LPA receptor (EDG-2) antagonistic activity” value is listed as “potent EDG-2 antagonistic activity”. Besides, the IC50 in experiment [4] (0.5 h, 30 min incubation at 37° C., read-out: 50% inhibitory concentration (IC50) for urethral contraction by LPA) came out at 70 nM. In addition, the “inhibition of urethral contraction by LPA” value in experiment [4] (in words) is reported as “inhibited the urethral contraction by LPA, dose-dependently”. Further, in the experiment with urethra [5], the “maximal amounts of the decreasing intraurethral pressure, of an absolute value (pressure before injection minus base-line value)” value was “about 50%”. Moreover, the intraurethral pressure entry in the experiment on urethra [5] (urethane anesthesia, versus vehicle, FIG. 5) is “greatly decreased”.
